Measurements taken from ChEMBL document CHEMBL4382202, “1-(2-Hydroxybenzoyl)-thiosemicarbazides are promising antimicrobial agents targeting d-alanine-d-alanine ligase in bacterio” (Eur J Med Chem, 2018).
In brackets after ≈: the same amount, converted by molar mass.

Assays:
Enterococcus faecalis [1] = assay: Antibacterial activity against vancomycin-resistant Enterococcus faecalis BM 4390 after 18 to 24 hrs by microdilution assay; type: functional
hERG (KCNH2) = hERG (KCNH2) (Homo sapiens, UniProt Q12809); assay: Displacement of [3H]-Dofetilide from recombinant human ERG at 10 uM after 60 mins by scintillation counting analysis relative to control; details: probe [3H]-dofetilide
hERG (KCNH2), sequence (Q12809 whole entry): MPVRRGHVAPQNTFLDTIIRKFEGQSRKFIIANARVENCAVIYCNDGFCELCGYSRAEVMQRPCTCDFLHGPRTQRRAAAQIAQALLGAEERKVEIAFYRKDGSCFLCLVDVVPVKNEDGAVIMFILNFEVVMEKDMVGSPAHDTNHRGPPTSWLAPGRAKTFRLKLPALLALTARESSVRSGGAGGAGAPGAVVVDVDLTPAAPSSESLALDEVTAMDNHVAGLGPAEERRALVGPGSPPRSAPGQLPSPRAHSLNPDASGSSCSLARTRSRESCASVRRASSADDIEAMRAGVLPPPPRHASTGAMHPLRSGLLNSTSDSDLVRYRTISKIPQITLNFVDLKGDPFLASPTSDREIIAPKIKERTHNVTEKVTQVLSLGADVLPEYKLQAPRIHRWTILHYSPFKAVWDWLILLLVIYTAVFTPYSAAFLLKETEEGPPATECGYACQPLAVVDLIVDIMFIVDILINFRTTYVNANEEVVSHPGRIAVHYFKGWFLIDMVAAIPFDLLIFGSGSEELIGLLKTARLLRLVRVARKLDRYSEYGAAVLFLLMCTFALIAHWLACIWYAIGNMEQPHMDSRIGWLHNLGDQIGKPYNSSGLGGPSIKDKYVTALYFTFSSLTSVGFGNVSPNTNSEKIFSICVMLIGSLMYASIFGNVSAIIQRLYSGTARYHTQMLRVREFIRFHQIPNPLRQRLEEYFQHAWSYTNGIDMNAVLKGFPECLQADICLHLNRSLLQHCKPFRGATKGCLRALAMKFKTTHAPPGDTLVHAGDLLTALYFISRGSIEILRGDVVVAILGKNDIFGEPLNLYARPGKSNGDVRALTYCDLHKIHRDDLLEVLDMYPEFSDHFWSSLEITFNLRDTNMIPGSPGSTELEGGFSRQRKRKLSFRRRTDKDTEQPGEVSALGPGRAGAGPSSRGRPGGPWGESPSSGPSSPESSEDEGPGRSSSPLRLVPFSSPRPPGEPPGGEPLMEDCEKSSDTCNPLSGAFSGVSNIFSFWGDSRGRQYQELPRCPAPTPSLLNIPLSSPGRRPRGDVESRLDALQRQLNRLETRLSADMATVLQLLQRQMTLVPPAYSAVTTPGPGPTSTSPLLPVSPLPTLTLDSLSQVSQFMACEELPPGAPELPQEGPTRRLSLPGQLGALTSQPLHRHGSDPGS

[2] = Inhibition of Bacillus cereus beta-lactamase using nitrocefin as substrate preincubated for 15 mins followed by substrate addition and measured after 60 mins by spectrophotometric analysis
Staphylococcus aureus [3] = assay: Antibacterial activity against community-acquired methicillin and erythromycin resistant Staphylococcus aureus SA 325 after 18 to 24 hrs by microdilution assay; type: functional
Enterococcus faecalis [4] = assay: Antibacterial activity against vancomycin-resistant Enterococcus faecalis BM 4575 clinical isolate after 18 to 24 hrs by microdilution assay; type: functional
Staphylococcus aureus [5] = assay: Antibacterial activity against hospital-acquired methicillin/ciprofloxacin/moxifloxacin resistant Staphylococcus aureus SA 481 after 18 to 24 hrs by microdilution assay; type: functional
Enterococcus faecalis [6] = assay: Antibacterial activity against Enterococcus faecalis ATCC 29212 after 18 to 24 hrs by microdilution assay; type: functional
[7] = molecular target: Secretory phospholipase A2; assay: Inhibition of human sPLA2; type: protein assay
THP-1 = assay: Cytotoxicity against human THP1 cells assessed as decrease in cell viability at 1 to 5 times MIC after 24 hrs by trypan blue exclusion assay relative to control; type: cell-based; details: thp-1, 24 h
[8] = molecular target: T1, D-alanine--D-alanine ligase (Enterococcus faecalis (strain ATCC 700802 / V583), UniProt Q47758); assay: Inhibition of Enterococcus faecalis JH2-2 C-terminal 6His-tagged DdlB expressed in Escherichia coli LMG194 preincubated for 30 mins followed by substrate addition and measured after 20 mins by Biomol Green reagent assay
T1 sequence (Q47758 whole entry): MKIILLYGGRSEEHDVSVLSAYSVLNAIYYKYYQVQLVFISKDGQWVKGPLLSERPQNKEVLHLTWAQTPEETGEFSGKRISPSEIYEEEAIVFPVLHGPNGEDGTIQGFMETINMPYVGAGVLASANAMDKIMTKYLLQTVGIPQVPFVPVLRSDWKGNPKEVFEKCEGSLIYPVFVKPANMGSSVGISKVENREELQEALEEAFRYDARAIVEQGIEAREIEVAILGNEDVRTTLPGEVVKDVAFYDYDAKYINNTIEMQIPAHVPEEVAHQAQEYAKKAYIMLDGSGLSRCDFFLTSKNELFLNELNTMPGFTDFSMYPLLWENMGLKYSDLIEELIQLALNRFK

Staphylococcus aureus [9] = assay: Antibacterial activity against methicillin and vancomycin intermediate resistant Staphylococcus aureus MU50 after 18 to 24 hrs by microdilution assay; type: functional
Staphylococcus aureus [10] = assay: Antibacterial activity against Staphylococcus aureus ATCC 25923 after 18 to 24 hrs by microdilution assay; type: functional
[11] = molecular target: T2, MAO-A (amine oxidase [flavin-containing] A) (Homo sapiens, UniProt P21397); assay: Inhibition of human MAOA at 10 uM using kynuramine as substrate after 20 mins by spectrophotometric analysis relative to control; details: probe kynuramine
T2 sequence (P21397 whole entry): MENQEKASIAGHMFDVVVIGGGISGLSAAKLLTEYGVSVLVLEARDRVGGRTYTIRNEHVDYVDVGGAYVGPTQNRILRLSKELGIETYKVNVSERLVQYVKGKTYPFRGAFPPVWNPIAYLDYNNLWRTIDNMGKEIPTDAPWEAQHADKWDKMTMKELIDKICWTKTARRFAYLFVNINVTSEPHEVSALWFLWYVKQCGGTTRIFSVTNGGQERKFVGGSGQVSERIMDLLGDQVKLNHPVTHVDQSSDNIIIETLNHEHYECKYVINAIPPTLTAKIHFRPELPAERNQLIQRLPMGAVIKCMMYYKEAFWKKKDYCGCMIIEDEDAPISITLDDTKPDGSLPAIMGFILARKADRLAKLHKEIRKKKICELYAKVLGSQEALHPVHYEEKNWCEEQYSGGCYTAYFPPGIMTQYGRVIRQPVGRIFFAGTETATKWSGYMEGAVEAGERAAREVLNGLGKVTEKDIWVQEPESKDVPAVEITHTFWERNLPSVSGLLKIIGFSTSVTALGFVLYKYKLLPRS

Staphylococcus aureus [12] = assay: Bactericidal activity against Staphylococcus aureus ATCC 25923 assessed as bacterial cell killing level at 0.1 mM after 24 hrs by time kill assay; type: functional
Staphylococcus aureus [13] = assay: Antibacterial activity against methicillin and linezolid resistant Staphylococcus aureus NRS 119 clinical isolate after 18 to 24 hrs by microdilution assay; type: functional
Enterococcus faecalis [14] = assay: Antibacterial activity against vancomycin-resistant Enterococcus faecalis JH2-2::C1 after 18 to 24 hrs by microdilution assay; type: functional
Staphylococcus aureus [15] = assay: Antibacterial activity against hospital-acquired methicillin and vacomycin resistant Staphylococcus aureus VRS-1 after 18 to 24 hrs by microdilution assay; type: functional
[16] = molecular target: Voltage-gated inwardly rectifying potassium channel KCNH2 (Homo sapiens, UniProt Q12809); assay: Displacement of [3H]-Dofetilide from recombinant human ERG after 60 mins by scintillation counting analysis
Voltage-gated inwardly rectifying potassium channel KCNH2, sequence (Q12809 whole entry): as the sequence (Q12809 whole entry) above

[17] = molecular target: T1, D-alanine--D-alanine ligase; assay: Inhibition of Enterococcus faecalis Ddl
[18] = Inhibition of 6His-tagged Staphylococcus aureus Ddl expressed in Escherichia coli M15 (pREP4) using ATP or d-alanine as substrate after 20 mins
[19] = Inhibition of full-length 6His-tagged Mycobacterium tuberculosis H37Rv Ddl expressed in Escherichia coli BL21(DE3)pLysS by UV-Vis spectrophotometric analysis
[20] = system: Mycobacterium tuberculosis; assay: Antitubercular activity against Mycobacterium tuberculosis H37Rv; type: functional

| Structure (SMILES) | MIC (Enterococcus faecalis [1]) [µM] | MIC (Staphylococcus aureus [3]) [µM] | MIC (Enterococcus faecalis [4]) [µM] | MIC (Staphylococcus aureus [5]) [µM] | MIC (Enterococcus faecalis [6]) [µM] | IC50 [8] [µM] | MIC (Staphylococcus aureus [9]) [µM] | MIC (Staphylococcus aureus [10]) [µM] | MIC (Staphylococcus aureus [13]) [µM] | MIC (Enterococcus faecalis [14]) [µM] | MIC (Staphylococcus aureus [15]) [µM] | further results |
| --- | --- | --- | --- | --- | --- | --- | --- | --- | --- | --- | --- | --- |
| O=C(NNC(=S)Nc1ccc(Cl)c(Cl)c1)c1ccccc1O | 50 (≈ 17.8 µg/mL) | 50 (≈ 17.8 µg/mL) | 50 (≈ 17.8 µg/mL) | 100 (≈ 35.6 µg/mL) | 50 (≈ 17.8 µg/mL) | 1.54 | 100 (≈ 35.6 µg/mL) | 100 (≈ 35.6 µg/mL) | 50 (≈ 17.8 µg/mL) | 100 (≈ 35.6 µg/mL) | 50 (≈ 17.8 µg/mL) | inhibition at 1 h, 10 µM (hERG (KCNH2)): ≤ 30%; IC50 [2]: 0.011 µM; IC50 [7]: 20 µM; Activity (THP-1): 12 to 25%; inhibition at 20 min, 10 µM [11]: ≤ 30%; Activity (Staphylococcus aureus [12]): 99%; IC50 [16]: 0.08 µM |
| N#Cc1ccc(NC(=S)NNC(=O)c2ccccc2O)cc1 | > 100 | > 100 | > 100 | > 100 | 100 (≈ 31.2 µg/mL) | 0.51 | > 100 | > 100 | > 100 | > 100 | > 100 |  |
| O=C(NNC(=S)Nc1cccc(F)c1)c1ccccc1O | > 100 | > 100 | > 100 | > 100 | 200 (≈ 61.1 µg/mL) | 0.1 | > 100 | > 100 | > 100 | > 100 | > 100 |  |
| O=C(NNC(=S)Nc1cccc(I)c1)c1ccccc1O | > 100 | > 100 | > 100 | > 100 | > 400 | 0.73 | > 100 | > 100 | > 100 | > 100 | > 100 |  |
| O=C(NNC(=S)Nc1ccc(OC(F)(F)F)cc1)c1ccccc1O | > 100 | 100 (≈ 37.1 µg/mL) | > 100 | > 100 | 50 (≈ 18.6 µg/mL) | 0.7 | > 100 | 25 (≈ 9.28 µg/mL) | 100 (≈ 37.1 µg/mL) | 100 (≈ 37.1 µg/mL) | > 100 |  |
| CCCCCNC(=S)NNC(=O)c1ccccc1O | > 100 | > 100 | > 100 | > 100 | > 400 | 0.93 | > 100 | > 100 | > 100 | > 100 | > 100 |  |
| O=C(NNC(=S)Nc1ccc(Cl)c(Cl)c1)c1ccc(I)cc1O | > 100 | > 100 | > 100 | > 100 | > 400 | 0.93 | > 100 | 100 (≈ 48.2 µg/mL) | > 100 | > 100 | > 100 |  |
| CCOC(=O)c1cc(Br)c2nc(-c3cccc(CN)c3)oc2c1 |  |  |  |  |  |  |  |  |  |  |  | IC50 [17]: 432 µM |
| O=C(NNC(=S)Nc1cccc(Cl)c1)c1ccccc1O | > 100 | 100 (≈ 32.2 µg/mL) | > 100 | > 100 | 400 (≈ 129 µg/mL) | 0.63 | > 100 | 100 (≈ 32.2 µg/mL) | > 100 | > 100 | > 100 |  |
| CC(C)(CCl)C(=O)Nc1ccc(C(F)(F)F)cc1 |  |  |  |  |  |  |  |  |  |  |  | Ki [18]: 4 µM |
| N[C@@H]1CONC1=O [CYCLOSERINE] |  |  |  |  | 1250 (≈ 128 µg/mL) |  |  | 313 (≈ 32 µg/mL) |  |  |  | Ki [19]: 25 µM; MIC [20]: 50 mg/L (≈ 490 µM) |
| O=C(NNC(=S)Nc1ccc(Cl)cc1Cl)c1ccccc1O | 25 (≈ 8.91 µg/mL) | 50 (≈ 17.8 µg/mL) | 25 (≈ 8.91 µg/mL) | 50 (≈ 17.8 µg/mL) | 50 (≈ 17.8 µg/mL) | 0.58 | 50 (≈ 17.8 µg/mL) | 50 (≈ 17.8 µg/mL) | 25 (≈ 8.91 µg/mL) | 50 (≈ 17.8 µg/mL) | 25 (≈ 8.91 µg/mL) |  |
| O=C(NNC(=S)Nc1ccc(F)cc1)c1ccccc1O | > 100 | > 100 | > 100 | > 100 | 200 (≈ 61.1 µg/mL) | 0.84 | > 100 | > 100 | > 100 | > 100 | > 100 |  |
